The record followed here is patent US6462069B2, “Compounds, pharmaceutical compositions, and methods for inhibiting protein kinases” (Agouron Pharmaceuticals, Inc., priority 2000, dated 2002).

The target of one assay is T1, CDK2/cyclin A complex (Homo sapiens, UniProt P24941).
T1 construct: made in house; host or cells: CDK2: insect cells (baculovirus); cyclin A: E. coli
Nature of the assay: Inhibition of CDK2/Cyclin A retinoblastoma kinase activity. To be noted: apparent Ki. It counts as biochemical. How it is done: (§1) Cyclin-dependent kinase activity was measured by quantifying the enzyme-catalyzed, time-dependent incorporation of radioactive phosphate from [^32P]ATP or [^33P]ATP into a protein substrate. Unless noted otherwise, assays were performed in 96-well plates in a total volume of 50 μL, in the presence of 10 mM HEPES (N-[2-hydroxyethyl]piperazine-N′-[2-ethanesulfonic acid]) (pH 7.4). 10 mM MgCI2, 25 μM adenosine triphosphate (ATP), 1 mg/mL ovalbumin, 5 μg/mL leupeptin, 1 mM dithiothreitol, 10 mM beta-glycerophosphate, 0.1 mM sodium vanadate, 1 mM sodium fluoride, 2.5 mM ethylene glycol-bis(β-aminoethyl ethKer)-N,N,N′N′-tetraacetic acid (EGTA), 2% (v/v) dimethylsulfoxide, and 0.03-0.4 μCi [^32/33P]ATP per reaction. Reactions were initiated with enzyme, incubated at 30° C. and terminated after 20 minutes by the addition ofethylenediaminetetraacetic acid (EDTA) to 250 mM. The phosphorylated substrate was then captured on a nitrocellulose or phosphocellulose membrane using a 96-well filtration manifold, and unincorporated radioactivity was removed by repeated washing with 0.85% phosphoric acid. Radioactivity was quantified by exposing the dried membranes to a phosphorimager.
(§2) Apparent Ki values were measured by assaying enzyme activity in the presence of different inhibitor compound concentrations and subtracting the background radioactivity measured in the absence of enzyme. Inhibition data were fit to an equation for competitive inhibition using Kaleidagraph (Synergy Software), or were fit to an equation for competitive tight-binding inhibition using the software KineTic (BioKin, Ltd.).
CDK2 was purified using published methodology (Rosenblatt et al., “Purification and Crystallization of Human Cyclin-dependent Kinase 2,” J. Mol. Biol., vol. 230, pp. 1317-1319 (1993)) from insect cells that had been infected with a baculovirus expression vector. […] Ki values were measured as described above.

The target in a further assay is T2, CDK4/cyclin D3 complex (Homo sapiens, UniProt P11802).
T2 construct: made in house; host or cells: insect cells co-infected with baculovirus expression vectors
Nature of the assay: Inhibition of CDK4/Cyclin D retinoblastoma kinase activity. As to conditions: apparent Ki. It counts as biochemical. How it is done: as §1, §2
A complex of human CDK4 and cyclin D3, or a complex of human CDK4 and genetically truncated (1-264) cyclin D3, was purified using traditional biochemical chromatographic techniques from insect cells that had been co-infected with the corresponding baculovirus expression vectors ((see e.g., Meijer and Kim, “Chemical Inhibitors of Cyclin-Dependent Kinases,” Methods in Enzymol,. vol. 283, pp. 113-128 (1997)). The enzyme complex (5 or 50 nM) was assayed with 0.3-0.5 μg of purified recombinant retinoblastoma protein fragment (Rb) as a substrate. The engineered Rb fragment (residues 386-928 of the native retinoblastoma protein; 62.3 kDa) contains the majority of the phosphorylation sites found in the native 106-kDa protein, as well as a tag of six histidine residues for ease of purification. Phosphorylated Rb substrate was captured by microfiltration on a nitrocellulose membrane and quantified using a phosphorimager as described above. For measurement of tight-binding inhibitors, the enzyme complex concentration was lowered to 5 nM, and the assay duration was extended to 60 minutes, during which the time-dependence of product formation was linear.

The target in assay [1] is T3, VEGF-R2 (VEGF-R2Δ50 construct) (Homo sapiens, UniProt P35968, DEL940-989/E990V).
T3 construct: VEGF-R2Δ50 contains residues 806-939 and 990-1171; made in house; host or cells: baculovirus/insect cell system
Nature of the assay: VEGF-R2 assay. Type of assay: biochemical. As to conditions: read-out: Percent Inhibition VEGF. An excerpt: This construct determines the ability of a test compound to inhibit tyrosine kinase activity. A construct (VEGF-R2Δ50) of the cytosolic domain of human vascular endothelial growth factor receptor 2 (VEGF-R2) lacking the 50 central residues of the 68 residues of the kinase insert domain was expressed in a baculovirus/insect cell system. This construct is described by McTigue et al. in Structure, vol. 7, pp. 319-330 (1999) and co-pending U.S. patent application Ser. No. 09/390,326, filed Sep. 7, 1999. Of the 1356 residues of full-length VEGF-R2, VEGF-R2Δ50 contains residues 806-939 and 990-1171, and also one point mutation (E990V) within the kinase insert domain relative to wild-type VEGF-R2. […]
The production of ADP from ATP that accompanies phosphoryl transfer was coupled to oxidation of NADH using phosphoenolpyruvate (PEP) and a system having pyruvate kinase (PK) and lactic dehydrogenase (LDH). The oxidation of NADH was monitored by following the decrease of absorbance at 340 nm (e340=6.22 cm^−1 mM^−1) using a Beckman DU 650 spectrophotometer. […] Ki values were determined by measuring enzyme activity in the presence of varying concentrations of test compounds. The data were analyzed using Enzyme Kinetic and Kaleidagraph software.
Formation of phosphogastrin was monitored using biotinylated gastrin peptide (1-17) as substrate. […]

For the next assay, the system named is HCT 116 cell line. Nature of the assay: Inhibition of cell growth, MTT tetrazolium salt assay. Type of assay: cell-based. To be noted: Homo sapiens, HCT116 cells; for IC50: 50% inhibition of growth, read-out: HCT116 IC 50. As for the experimental part:
Inhibition of cell growth was measured using the tetrazolium salt assay, which is based on the ability of viable cells to reduce 3-(4,5-dimethylthiazol-2-yl)-2,5-[2H]-diphenyltetrazolium bromide (MTT) to formazan (Mossman, Journal of Immunological Methods, vol.65, pp. 55-58(1983)). The water-insoluble purple formazan product was then detected spectrophotometrically. The HCT 116 cell line was grown in 96-well plates. Cells were plated in the appropriate medium at a volume of 135 μl/well in McCoy's 5A Medium. Plates were incubated for four hours before addition of inhibitor compounds. Different concentrations of inhibitor compounds were added in 0.5% (v/v) dimethylsulfoxide (15 μL/well), and cells were incubated at 37° C. (5% CO2) for four to six days (depending on cell type). At the end of the incubation, MTT was added to a final concentration of 0.2 mg/mL, and cells were incubated for 4 hours more at 37° C. After centrifugation of the plates and removal of medium, the absorbance of the formazan (solubilized in dimethylsulfoxide) was measured at 540 nm. The concentration of inhibitor compound causing 50% inhibition of growth was determined from the linear portion of a semi-log plot of inhibitor concentration versus percentage inhibition. All results were compared to control cells treated only with 0.5% (v/v) dimethylsulfoxide.

T2 sequence (P11802 whole entry): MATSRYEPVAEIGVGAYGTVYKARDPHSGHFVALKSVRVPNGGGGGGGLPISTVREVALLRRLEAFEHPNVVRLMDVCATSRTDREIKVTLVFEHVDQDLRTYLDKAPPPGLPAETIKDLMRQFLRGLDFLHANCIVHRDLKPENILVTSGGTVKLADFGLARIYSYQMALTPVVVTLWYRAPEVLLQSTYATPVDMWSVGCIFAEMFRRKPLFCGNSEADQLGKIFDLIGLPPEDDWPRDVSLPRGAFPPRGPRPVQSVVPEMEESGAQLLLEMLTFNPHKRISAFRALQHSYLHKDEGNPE
T2 sequence (P30281 whole entry partner): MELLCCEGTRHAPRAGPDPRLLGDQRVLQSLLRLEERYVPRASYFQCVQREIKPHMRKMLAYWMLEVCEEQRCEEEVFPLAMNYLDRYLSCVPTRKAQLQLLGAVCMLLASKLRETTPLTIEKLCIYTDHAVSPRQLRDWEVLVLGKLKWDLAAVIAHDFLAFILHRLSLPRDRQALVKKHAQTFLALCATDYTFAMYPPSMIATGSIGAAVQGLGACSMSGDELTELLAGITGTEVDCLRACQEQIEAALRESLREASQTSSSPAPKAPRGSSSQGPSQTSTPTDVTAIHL
T3 sequence (P35968 with tags, fused parts or gaps DEL940-989/E990V limits assumed): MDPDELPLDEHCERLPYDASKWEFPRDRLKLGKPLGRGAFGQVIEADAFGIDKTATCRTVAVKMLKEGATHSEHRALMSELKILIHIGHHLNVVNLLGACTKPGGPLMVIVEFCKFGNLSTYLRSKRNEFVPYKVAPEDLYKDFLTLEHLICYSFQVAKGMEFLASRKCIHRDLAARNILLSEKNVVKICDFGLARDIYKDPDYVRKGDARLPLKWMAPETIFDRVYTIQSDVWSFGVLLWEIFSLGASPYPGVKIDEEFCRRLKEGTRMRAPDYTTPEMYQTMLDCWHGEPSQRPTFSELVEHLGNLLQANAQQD

Usually inhibition stands for the drop in the measured response relative to a control, in per cent. In the case of `c1ccc(Nc2cc(-c3cccs3)[nH]n2)cc1` [Compound A, Phenyl-(5-thiophen-2-yl-1H-pyrazol-3-yl)-amine], the Ki was found to be 25.8 µM at CDK2/cyclin A complex and 26.2 µM on CDK4/cyclin D3 complex. For the same compound, the inhibition at 5 µM in assay [1] was determined as 10%.
The matching figures for `c1ccc(Nc2cc(-c3csc4ccccc34)[nH]n2)cc1` [Compound B]: 6.2 µM, 3.1 µM and 21%.
Turning to `NS(=O)(=O)c1ccc(Nc2cc(-c3csc4ccccc34)[nH]n2)cc1` [Compound O], the values for the Ki at CDK2/cyclin A complex and at CDK4/cyclin D3 complex were 0.062 µM and 1.6 µM, respectively. Moreover, in the assay with HCT 116 cell line, the IC50 turned out to be 9.5 µM. The IC90 with HCT 116 cell line (read-out: HCT116 IC 90) was determined as 24 µM.
On to `NS(=O)(=O)c1ccc(Nc2cc(-c3csc4cc(O)ccc34)[nH]n2)cc1` [Compound W, 4-[5-(6-Hydroxy-benzo[b]Thiophen-3-yl)-1H-pyrazol-3-ylamino]-Benzenesulfonamide], for which the values for the Ki at CDK2/cyclin A complex and at CDK4/cyclin D3 complex were 0.016 µM and 0.9 µM, respectively. Also, in the assay with HCT 116 cell line, the IC50 turned out to be 20 µM.
